In brackets after ≈: the same amount, converted by molar mass.
Legend:
Experiment in all cases: MIC panel of challenge pathogens (CLSI)
Format in all cases: cell-based
[1] = tested on: Staphylococcus aureus NRS384; conditions: Staphylococcus aureus NRS384
How it was run: (§1)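 Broth microdilution per CLSI guidelines. Final inoculum 2-8×10^5 CFU/ml, compounds serially two-fold diluted from 128 mg/L top concentration. Incubated in the dark at 30-37° C for 24-48 h, aerobic or anaerobic as appropriate. MIC read visually as 100% inhibition endpoint; MIC50 and MIC80 also reported.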

[2] = tested on: Staphylococcus aureus EUP SAU040; conditions: EUPSAU040, Staphylococcus aureus EUP SAU040
How it was run: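 Broth microdilution per CLSI guidelines; final inoculum 2-8×10^5 CFU/ml in the appropriate broth. Compounds serially diluted two-fold from a top assay concentration of 128 mg/L. Plates incubated in the dark at 30-37° C for 24-48 hours, read visually; MIC taken as 100% inhibition endpoint.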

[3] = tested on: Staphylococcus aureus NRS1 (ATCC700699); conditions: Staphylococcus aureus NRS1 (ATCC700699)
How it was run: as §1

[4] = tested on: Staphylococcus epidermidis NRS122; conditions: Staphylococcus epidermidis NRS122
How it was run: as §1

[5] = tested on: Staphylococcus aureus AUR58 7005; conditions: AUR587005, Staphylococcus aureus AUR58 7005
How it was run: as §1

[6] = tested on: Staphylococcus aureus ATCC43300; conditions: Staphylococcus aureus ATCC43300
How it was run: as §1

[7] = tested on: Staphylococcus aureus EUP MRSA002; conditions: EUPMRSA002, Staphylococcus aureus EUP MRSA002
How it was run: as §1

[8] = tested on: Staphylococcus epidermidis NRS7; conditions: Staphylococcus epidermidis NRS7
How it was run: as §1

[9] = tested on: Enterococcus faecalis ATCC29212; conditions: Enterococcus faecalis ATCC29212
How it was run: as §1

[10] = tested on: Staphylococcus aureus AUR131 007035; conditions: AUR131007035, Staphylococcus aureus AUR131 007035
How it was run: as §1

[11] = tested on: Staphylococcus aureus NRS383; conditions: Staphylococcus aureus NRS383
How it was run: as §1

[12] = tested on: Staphylococcus aureus NRS2 (ATCC700698); conditions: Staphylococcus aureus NRS2 (ATCC700698)
How it was run: as §1

[13] = tested on: Staphylococcus aureus AUR59 7005; conditions: AUR597005, Staphylococcus aureus AUR59 7005
How it was run: as §1

[14] = tested on: Staphylococcus aureus AUR60 7005; conditions: AUR607005, Staphylococcus aureus AUR60 7005
How it was run: as §1

[15] = tested on: Bacillus cereus NCTC6349; conditions: Bacillus cereus NCTC6349
How it was run: as §1

[16] = tested on: Enterococcus faecalis ATCC51299; conditions: Enterococcus faecalis ATCC51299
How it was run: as §1

[17] = tested on: Staphylococcus aureus NRS382; conditions: Staphylococcus aureus NRS382
How it was run: as §1

[18] = tested on: Staphylococcus aureus EUP MRSA004; conditions: EUPMRSA004, Staphylococcus aureus EUP MRSA004
How it was run: as §1

[19] = tested on: Enterococcus faecium ATCC700221; conditions: Enterococcus faecium ATCC700221
How it was run: as §1

CC(C)c1cc(Cl)ccc1-c1cc(C(=O)O)sc1-c1ccc(Cl)cc1C(C)C [DNM0566, 4,5-Bis(4-chloro-2-isopropylphenyl)thiophene-2-carboxylic acid]
MIC ([1]; read-out: 100% inhibition): 0.5 µg/mL (≈ 1.15 µM) | MIC50 ([1]; read-out: MIC50 (50%)): 0.5 µg/mL (≈ 1.15 µM) | MIC80 ([1]; read-out: MIC80 (80%)): 0.5 µg/mL (≈ 1.15 µM) | MIC ([2]; read-out: 100% inhibition): 0.5 µg/mL (≈ 1.15 µM) | MIC50 ([2]; read-out: MIC50 (50%)): 0.5 µg/mL (≈ 1.15 µM) | MIC80 ([2]; read-out: MIC80 (80%)): 0.5 µg/mL (≈ 1.15 µM) | MIC ([3]; read-out: 100% inhibition): ≤ 0.25 µg/mL | MIC50 ([3]; read-out: MIC50 (50%)): ≤ 0.25 µg/mL | MIC80 ([3]; read-out: MIC80 (80%)): ≤ 0.25 µg/mL | MIC ([4]; read-out: 100% inhibition): 2 µg/mL (≈ 4.61 µM) | MIC50 ([4]; read-out: MIC50 (50%)): 1 µg/mL (≈ 2.31 µM) | MIC80 ([4]; read-out: MIC80 (80%)): 2 µg/mL (≈ 4.61 µM) | MIC ([5]; read-out: 100% inhibition): 1 µg/mL (≈ 2.31 µM) | MIC50 ([5]; read-out: MIC50 (50%)): 1 µg/mL (≈ 2.31 µM) | MIC80 ([5]; read-out: MIC80 (80%)): 1 µg/mL (≈ 2.31 µM) | MIC ([6]; read-out: 100% inhibition): ≤ 0.25 µg/mL | MIC50 ([6]; read-out: MIC50 (50%)): ≤ 0.25 µg/mL | MIC80 ([6]; read-out: MIC80 (80%)): ≤ 0.25 µg/mL | MIC ([7]; read-out: 100% inhibition): ≤ 0.25 µg/mL | MIC50 ([7]; read-out: MIC50 (50%)): ≤ 0.25 µg/mL | MIC80 ([7]; read-out: MIC80 (80%)): ≤ 0.25 µg/mL | MIC ([8]; read-out: 100% inhibition): 1 µg/mL (≈ 2.31 µM) | MIC50 ([8]; read-out: MIC50 (50%)): 1 µg/mL (≈ 2.31 µM) | MIC80 ([8]; read-out: MIC80 (80%)): 1 µg/mL (≈ 2.31 µM) | MIC ([9]; read-out: 100% inhibition): 0.5 µg/mL (≈ 1.15 µM) | MIC50 ([9]; read-out: MIC50 (50%)): 0.5 µg/mL (≈ 1.15 µM) | MIC80 ([9]; read-out: MIC80 (80%)): 0.5 µg/mL (≈ 1.15 µM) | MIC ([10]; read-out: 100% inhibition): ≤ 0.25 µg/mL | MIC50 ([10]; read-out: MIC50 (50%)): ≤ 0.25 µg/mL | MIC80 ([10]; read-out: MIC80 (80%)): ≤ 0.25 µg/mL | MIC ([11]; read-out: 100% inhibition): ≤ 0.25 µg/mL | MIC50 ([11]; read-out: MIC50 (50%)): ≤ 0.25 µg/mL | MIC80 ([11]; read-out: MIC80 (80%)): ≤ 0.25 µg/mL | MIC ([12]; read-out: 100% inhibition): 0.5 µg/mL (≈ 1.15 µM) | MIC50 ([12]; read-out: MIC50 (50%)): 0.25 µg/mL (≈ 0.577 µM) | MIC80 ([12]; read-out: MIC80 (80%)): 0.5 µg/mL (≈ 1.15 µM) | MIC ([13]; read-out: 100% inhibition): 0.5 µg/mL (≈ 1.15 µM) | MIC50 ([13]; read-out: MIC50 (50%)): 0.25 µg/mL (≈ 0.577 µM) | MIC80 ([13]; read-out: MIC80 (80%)): 0.25 µg/mL (≈ 0.577 µM) | MIC ([14]; read-out: 100% inhibition): 0.5 µg/mL (≈ 1.15 µM) | MIC50 ([14]; read-out: MIC50 (50%)): 0.5 µg/mL (≈ 1.15 µM) | MIC80 ([14]; read-out: MIC80 (80%)): 0.5 µg/mL (≈ 1.15 µM) | MIC ([15]; read-out: 100% inhibition): ≤ 0.25 µg/mL | MIC50 ([15]; read-out: MIC50 (50%)): ≤ 0.25 µg/mL | MIC80 ([15]; read-out: MIC80 (80%)): ≤ 0.25 µg/mL | MIC ([16]; read-out: 100% inhibition): 0.5 µg/mL (≈ 1.15 µM) | MIC50 ([16]; read-out: MIC50 (50%)): 0.5 µg/mL (≈ 1.15 µM) | MIC80 ([16]; read-out: MIC80 (80%)): 0.5 µg/mL (≈ 1.15 µM) | MIC ([17]; read-out: 100% inhibition): 0.5 µg/mL (≈ 1.15 µM) | MIC50 ([17]; read-out: MIC50 (50%)): 0.5 µg/mL (≈ 1.15 µM) | MIC80 ([17]; read-out: MIC80 (80%)): 0.5 µg/mL (≈ 1.15 µM) | MIC ([18]; read-out: 100% inhibition): ≤ 0.25 µg/mL | MIC50 ([18]; read-out: MIC50 (50%)): ≤ 0.25 µg/mL | MIC80 ([18]; read-out: MIC80 (80%)): ≤ 0.25 µg/mL | MIC ([19]; read-out: 100% inhibition): 0.5 µg/mL (≈ 1.15 µM) | MIC50 ([19]; read-out: MIC50 (50%)): 0.25 µg/mL (≈ 0.577 µM) | MIC80 ([19]; read-out: MIC80 (80%)): 0.25 µg/mL (≈ 0.577 µM)
